Experimental data as given in ChEMBL document CHEMBL6103619, “Discovery of a Novel CRBN-Recruiting cGAS PROTAC Degrader for the Treatment of Ulcerative Colitis” (J Med Chem, 2025).
Calls of active or inactive are those of the source. The rule behind the calls is not given here.

Tests used:
THP1-Lucia ISG = assay: (§1) Potency index, ratio of 1-(6,7-dichloro-9-(1-methyl-1H-pyrazol-3-yl)-1,3,4,5-tetrahydro-2H-pyrido[4,3-b]indol-2-yl)-2-hydroxyethan-1-one IC50 to test compound IC50 for inhibition of dsDNA-induced cGAS signaling pathway in human THP1-Lucia ISG cells preincubated with compound for 24 hrs followed by HT-DNA addition and measured after 24 hrs by QUANTI-Luc luciferase reagent based assay; format: cell-based; conditions: time 48.0 hrs
RAW-Lucia ISG = assay: as §1, with “mouse RAW-Lucia” for “human THP1-Lucia”; format: cell-based; conditions: time 48.0 hrs
[1] = biological target: T1, Protein cereblon/Cyclic GMP-AMP synthase (Homo sapiens, UniProt Q96SW2+Q8N884); assay: PROTAC activity at CRBN/cGAS in human THP-1 cells assessed as induction of cGAS degradation preincubated with compound for 40 hrs followed by HT-DNA stimulation and measured after 8 hrs by Western blot analysis; format: cell-based
[2] = biological target: T1, Protein cereblon/Cyclic GMP-AMP synthase; assay: PROTAC activity at CRBN/cGAS in human THP-1 cells assessed as induction of cGAS degradation by measuring maximal efficacy at 20 uM preincubated with compound for 40 hrs followed by HT-DNA stimulation and measured after 8 hrs by Western blot analysis relative to control; format: cell-based; conditions: time 48.0 hrs
Target sequence in this assay (Q8N884 whole entry, looked up): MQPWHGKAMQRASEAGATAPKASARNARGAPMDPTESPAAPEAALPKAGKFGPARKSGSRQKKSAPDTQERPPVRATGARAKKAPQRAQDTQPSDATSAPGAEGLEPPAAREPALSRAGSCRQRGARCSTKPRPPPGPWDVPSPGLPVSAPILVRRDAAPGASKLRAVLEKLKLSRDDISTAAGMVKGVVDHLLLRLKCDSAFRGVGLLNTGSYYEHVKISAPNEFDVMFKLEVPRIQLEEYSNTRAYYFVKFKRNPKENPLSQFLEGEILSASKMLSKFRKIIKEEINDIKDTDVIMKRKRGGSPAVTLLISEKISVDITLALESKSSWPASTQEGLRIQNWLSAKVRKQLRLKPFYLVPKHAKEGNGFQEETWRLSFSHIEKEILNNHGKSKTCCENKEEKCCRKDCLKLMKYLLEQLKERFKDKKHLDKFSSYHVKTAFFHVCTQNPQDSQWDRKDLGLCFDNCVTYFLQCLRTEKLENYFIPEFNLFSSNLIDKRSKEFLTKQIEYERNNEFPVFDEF
Target sequence in this assay (Q96SW2 whole entry, looked up): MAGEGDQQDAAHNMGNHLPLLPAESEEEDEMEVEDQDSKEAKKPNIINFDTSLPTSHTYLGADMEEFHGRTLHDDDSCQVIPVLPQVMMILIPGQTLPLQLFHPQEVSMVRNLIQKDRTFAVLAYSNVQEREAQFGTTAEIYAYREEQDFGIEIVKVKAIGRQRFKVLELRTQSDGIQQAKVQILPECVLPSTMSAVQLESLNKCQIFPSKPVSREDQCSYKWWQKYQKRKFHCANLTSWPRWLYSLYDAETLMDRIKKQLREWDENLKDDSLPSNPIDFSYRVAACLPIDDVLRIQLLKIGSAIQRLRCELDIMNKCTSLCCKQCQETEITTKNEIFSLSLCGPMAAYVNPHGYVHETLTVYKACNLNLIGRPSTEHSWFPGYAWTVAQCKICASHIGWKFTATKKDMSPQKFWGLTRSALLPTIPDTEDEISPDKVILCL

[3] = biological target: T1, Protein cereblon/Cyclic GMP-AMP synthase; assay: PROTAC activity at CRBN/cGAS in human THP-1 cells assessed as induction of cGAS degradation at 10 uM preincubated with lenalidomide for 2 hrs followed by compound addition and measured after 48 hrs by Western blot analysis; format: cell-based
Target sequence in this assay (Q8N884 whole entry, looked up): as the sequence (Q8N884 whole entry, looked up) above
Target sequence in this assay (Q96SW2 whole entry, looked up): as the sequence (Q96SW2 whole entry, looked up) above

THP-1 [4] = assay: Inhibition of cGAMP production in human THP-1 cells at 5 to 20 uM preincubated with compound for 36 hrs followed by HT-DNA addition and measured after 6 hrs by LC-MS analysis; format: functional, cell-based; conditions: dose 5-20 µM, time 42.0 hrs
THP-1 [5] = assay: Inhibition of ds-DNA induced cGAS-STING signaling pathway in human THP-1 cells assessed as reduction in STING phosphorylation preincubated with compound for 40 hrs followed by HT-DNA addition and measured after 8 hrs by Western blot analysis; format: cell-based; conditions: dose 0.7-20 µM, time 48.0 hrs
THP-1 [6] = assay: Inhibition of ds-DNA induced cGAS-STING signaling pathway in human THP-1 cells assessed as reduction in TBK1 phosphorylation preincubated with compound for 40 hrs followed by HT-DNA addition and measured after 8 hrs by Western blot analysis; format: cell-based; conditions: dose 0.7-20 µM, time 48.0 hrs
THP-1 [7] = assay: Inhibition of ds-DNA induced cGAS-STING signaling pathway in human THP-1 cells assessed as reduction in IRF3 phosphorylation preincubated with compound for 40 hrs followed by HT-DNA addition and measured after 8 hrs by Western blot analysis; format: cell-based; conditions: dose 0.7-20 µM, time 48.0 hrs
RAW264.7 [8] = assay: Inhibition of ds-DNA induced cGAS-STING signaling pathway in mouse RAW264.7 cells assessed as reduction in STING phosphorylation preincubated with compound for 40 hrs followed by HT-DNA addition and measured after 8 hrs by Western blot analysis; format: cell-based; conditions: dose 0.7-20 µM, time 48.0 hrs
RAW264.7 [9] = assay: Inhibition of ds-DNA induced cGAS-STING signaling pathway in mouse RAW264.7 cells assessed as reduction in TBK1 phosphorylation preincubated with compound for 40 hrs followed by HT-DNA addition and measured after 8 hrs by Western blot analysis; format: cell-based; conditions: dose 0.7-20 µM, time 48.0 hrs
THP-1 [10] = assay: Downregulation of IFNB mRNA expression in human THP-1 cells preincubated with compound for 40 hrs followed by HT-DNA addition and measured after 8 hrs by qRT-PCR analysis; format: functional, cell-based; conditions: dose 1.25-10 µM, time 48.0 hrs
THP-1 [11] = assay: Downregulation of CXCL10 mRNA expression in human THP-1 cells preincubated with compound for 40 hrs followed by HT-DNA addition and measured after 8 hrs by qRT-PCR analysis; format: functional, cell-based; conditions: dose 1.25-10 µM, time 48.0 hrs
THP-1 [12] = assay: Downregulation of IFNB mRNA expression level in ISD-induced human THP-1 cells at 20 uM preincubated with compound for 12 hrs followed by 45-bp immune stimulatory DNA addition and measured after 8 hrs by RT-qPCR analysis; format: functional, cell-based; conditions: time 20.0 hrs
THP-1 [13] = assay: Downregulation of IFNB mRNA expression level in HT-DNA-induced human THP-1 cells at 20 uM preincubated with compound for 12 hrs followed by HT-DNA addition and measured after 8 hrs by RT-qPCR analysis; format: functional, cell-based; conditions: time 20.0 hrs
THP-1 [14] = assay: Downregulation of IFNB mRNA expression level in poly(I:C)-induced human THP-1 cells at 20 uM preincubated with compound for 12 hrs followed by poly(I:C) addition and measured after 8 hrs by RT-qPCR analysis; format: functional, cell-based; conditions: time 20.0 hrs
THP-1 [15] = assay: Cytotoxicity against human THP-1 cells assessed as reduction in cell viability upto 60 uM incubated for 48 hrs by CCK8 assay; format: toxicity, cell-based; conditions: thp-1, 48 h
RAW264.7 [16] = assay: Cytotoxicity against mouse RAW264.7 cells assessed as reduction in cell viability upto 60 uM incubated for 48 hrs by CCK8 assay; format: toxicity, cell-based; conditions: raw264.7, 48 h
RAW264.7 [17] = assay: Cytotoxicity against mouse RAW264.7 cells assessed as reduction in cell viability at >30 uM incubated for 48 hrs by CCK8 assay; format: toxicity, cell-based; conditions: raw264.7, 48 h
[18] = Cmax in male C57BL/6 mouse at 1 mg/kg, iv measured after 24 hrs by LC-MS/MS analysis; format: ADME, organism-based; conditions: in vivo
[19] = Clearance in male C57BL/6 mouse at 1 mg/kg, iv measured after 24 hrs by LC-MS/MS analysis; format: ADME, organism-based; conditions: in vivo
[20] = MRT (0 to 24 hrs) in male C57BL/6 mouse at 1 mg/kg, iv measured after 24 hrs by LC-MS/MS analysis; format: ADME, organism-based; conditions: in vivo
[21] = Cmax in male C57BL/6 mouse at 20 mg/kg, ip measured after 24 hrs by LC-MS/MS analysis; format: ADME, organism-based; conditions: in vivo
Mus musculus [22] = assay: (§2) Anti-inflammatory activity in DSS-induced ulcerative colitis C57BL/6 mouse model assessed as decrease in disease activity index at 20 to 50 mg/kg/day, ip preadministered with DSS for 7 days followed by replacement with ultrapure water for 3 days with subsequent compound administration starting from day 4 to 10 and measured on day 11; format: functional, organism-based; conditions: dose 20-50 mg/kg/day, time 8.0 day
Mus musculus [23] = assay: as §2, with “normal morphological appearance of spleen” for “decrease in disease activity index”, “11 by H and E staining based analysis” for “11”; format: functional, organism-based; conditions: dose 20-50 mg/kg/day, time 8.0 day
[24] = biological target: T2, Protein cereblon/Cyclic GMP-AMP synthase (Mus musculus) (UniProt Q8C6L5+Q8C7D2); assay: (§3) In vivo inhibition of cGAS signaling pathway in DSS-induced ulcerative colitis C57BL/6 mouse model assessed as reduction in cGAS protein level in colon preadministered with DSS for 7 days followed by replacement with ultrapure water for 3 days with subsequent intraperitoneal compound administration starting from day 4 to 10 and measured on day 11 by Western blot analysis; format: functional, organism-based; conditions: dose 20-50 mg/kg/day, route ip, time 8.0 day
T2 sequence (Q8C6L5 whole entry, looked up): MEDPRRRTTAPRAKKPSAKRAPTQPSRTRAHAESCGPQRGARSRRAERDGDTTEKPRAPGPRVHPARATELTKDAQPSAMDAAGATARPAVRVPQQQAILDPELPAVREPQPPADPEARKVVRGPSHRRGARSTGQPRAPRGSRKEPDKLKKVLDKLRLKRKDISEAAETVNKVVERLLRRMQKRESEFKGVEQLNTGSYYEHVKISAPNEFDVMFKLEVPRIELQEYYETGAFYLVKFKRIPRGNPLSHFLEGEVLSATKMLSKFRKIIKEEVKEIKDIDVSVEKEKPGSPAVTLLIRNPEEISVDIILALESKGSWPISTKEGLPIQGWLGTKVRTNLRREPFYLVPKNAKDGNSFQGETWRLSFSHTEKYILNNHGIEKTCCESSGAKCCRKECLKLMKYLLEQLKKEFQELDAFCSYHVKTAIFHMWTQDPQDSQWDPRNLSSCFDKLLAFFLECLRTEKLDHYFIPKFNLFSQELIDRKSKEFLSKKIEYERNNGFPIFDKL
T2 sequence (Q8C7D2 whole entry, looked up): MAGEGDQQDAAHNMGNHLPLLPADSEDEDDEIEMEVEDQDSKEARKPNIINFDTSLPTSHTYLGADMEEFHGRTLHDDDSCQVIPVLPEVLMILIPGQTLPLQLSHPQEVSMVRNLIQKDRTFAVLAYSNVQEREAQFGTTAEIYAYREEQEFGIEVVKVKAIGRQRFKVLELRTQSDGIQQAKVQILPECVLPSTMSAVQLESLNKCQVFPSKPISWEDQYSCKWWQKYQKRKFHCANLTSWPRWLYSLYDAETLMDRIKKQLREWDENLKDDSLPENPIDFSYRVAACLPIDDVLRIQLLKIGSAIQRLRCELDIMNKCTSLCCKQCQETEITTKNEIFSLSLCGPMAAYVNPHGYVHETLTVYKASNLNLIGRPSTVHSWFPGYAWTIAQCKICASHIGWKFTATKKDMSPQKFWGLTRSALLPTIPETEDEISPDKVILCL

[25] = biological target: T2, Protein cereblon/Cyclic GMP-AMP synthase (Mus musculus); assay: as §3, with “STING phosphorylation” for “cGAS protein”; format: functional, organism-based; conditions: dose 20-50 mg/kg/day, route ip, time 8.0 day
[26] = biological target: T2, Protein cereblon/Cyclic GMP-AMP synthase (Mus musculus); assay: as §3, with “TBK1 phosphorylation” for “cGAS protein”; format: functional, organism-based; conditions: dose 20-50 mg/kg/day, route ip, time 8.0 day
Mus musculus [27] = assay: as §2, with “reduction” for “decrease”, “TNF-alpha mRNA level in colon” for “disease activity index”, “11 by qRT-PCR analysis” for “11”; format: functional, organism-based; conditions: dose 20-50 mg/kg/day, time 8.0 day

SMILES: Cn1ccc(-c2cc(Cl)c(Cl)c3[nH]c4c(c23)CN(C(=O)CNC(=O)CCCC#Cc2cccc3c2CN(C2CCC(=O)NC2=O)C3=O)CC4)n1 (stereo not given)
- Ratio IC50 (THP1-Lucia ISG): 3
- Ratio IC50 (RAW-Lucia ISG): 3
- DC50 [1]: 900 nM
- Activity ([1]; time 48.0 hrs): Dose-dependent-effect
- Emax [2]: 94.4%
- Activity [3]: inactive
- inhibition (THP-1 [4]): Active
- inhibition (THP-1 [5]): Dose-dependent-effect
- inhibition (THP-1 [6]): Dose-dependent-effect
- inhibition (THP-1 [7]): Dose-dependent-effect
- inhibition (RAW264.7 [8]): Dose-dependent-effect
- inhibition (RAW264.7 [9]): Dose-dependent-effect
- Activity (THP-1 [10]): Dose-dependent-effect
- Activity (THP-1 [11]): Dose-dependent-effect
- Activity (THP-1 [12]): Active
- Activity (THP-1 [13]): Active
- Activity (THP-1 [14]): inactive
- Activity (THP-1 [15]): Non-toxic
- Activity (RAW264.7 [16]): Non-toxic
- Activity (RAW264.7 [17]): Toxic
- Cmax [18]: 1610 ng/mL
- clearance [19]: 31.7 mL/min/kg
- MRT last at 24 h [20]: 54 min
- Cmax [21]: 248 ng/mL
- Activity (Mus musculus [22]): Active
- Activity (Mus musculus [23]): Active
- inhibition [24]: Dose-dependent-effect
- inhibition [25]: Dose-dependent-effect
- inhibition [26]: Dose-dependent-effect
- Activity (Mus musculus [27]): Active
